Test results reported in ChEMBL document CHEMBL1909046, “DrugMatrix in vitro pharmacology data”.

Experiments:
Melanocortin receptor 5 = Melanocortin receptor 5 (Homo sapiens, UniProt P33032); type: cell membranes, HEK293, Membrane; note: in other assays of this panel Not Active means under 50% inhibition at 10 µM
[1] = DRUGMATRIX: GABAA, Flunitrazepam, Central radioligand binding (ligand: [3H] Flunitrazepam); type: cell membranes, Rattus norvegicus, Wistar, Brain, Membrane; conditions: Not Active = under 50% inhibition at 10 µM
[2] = molecular target: T1, Receptor-type tyrosine-protein phosphatase C (Homo sapiens, UniProt P08575); design: species or system Escherichia coli;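 note: inhibition of CD45 enzyme activity measured using DiFMUP as substrate; in other assays of this panel Not Active means under 50% inhibition at 10 µM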
T1 sequence (P08575 whole entry): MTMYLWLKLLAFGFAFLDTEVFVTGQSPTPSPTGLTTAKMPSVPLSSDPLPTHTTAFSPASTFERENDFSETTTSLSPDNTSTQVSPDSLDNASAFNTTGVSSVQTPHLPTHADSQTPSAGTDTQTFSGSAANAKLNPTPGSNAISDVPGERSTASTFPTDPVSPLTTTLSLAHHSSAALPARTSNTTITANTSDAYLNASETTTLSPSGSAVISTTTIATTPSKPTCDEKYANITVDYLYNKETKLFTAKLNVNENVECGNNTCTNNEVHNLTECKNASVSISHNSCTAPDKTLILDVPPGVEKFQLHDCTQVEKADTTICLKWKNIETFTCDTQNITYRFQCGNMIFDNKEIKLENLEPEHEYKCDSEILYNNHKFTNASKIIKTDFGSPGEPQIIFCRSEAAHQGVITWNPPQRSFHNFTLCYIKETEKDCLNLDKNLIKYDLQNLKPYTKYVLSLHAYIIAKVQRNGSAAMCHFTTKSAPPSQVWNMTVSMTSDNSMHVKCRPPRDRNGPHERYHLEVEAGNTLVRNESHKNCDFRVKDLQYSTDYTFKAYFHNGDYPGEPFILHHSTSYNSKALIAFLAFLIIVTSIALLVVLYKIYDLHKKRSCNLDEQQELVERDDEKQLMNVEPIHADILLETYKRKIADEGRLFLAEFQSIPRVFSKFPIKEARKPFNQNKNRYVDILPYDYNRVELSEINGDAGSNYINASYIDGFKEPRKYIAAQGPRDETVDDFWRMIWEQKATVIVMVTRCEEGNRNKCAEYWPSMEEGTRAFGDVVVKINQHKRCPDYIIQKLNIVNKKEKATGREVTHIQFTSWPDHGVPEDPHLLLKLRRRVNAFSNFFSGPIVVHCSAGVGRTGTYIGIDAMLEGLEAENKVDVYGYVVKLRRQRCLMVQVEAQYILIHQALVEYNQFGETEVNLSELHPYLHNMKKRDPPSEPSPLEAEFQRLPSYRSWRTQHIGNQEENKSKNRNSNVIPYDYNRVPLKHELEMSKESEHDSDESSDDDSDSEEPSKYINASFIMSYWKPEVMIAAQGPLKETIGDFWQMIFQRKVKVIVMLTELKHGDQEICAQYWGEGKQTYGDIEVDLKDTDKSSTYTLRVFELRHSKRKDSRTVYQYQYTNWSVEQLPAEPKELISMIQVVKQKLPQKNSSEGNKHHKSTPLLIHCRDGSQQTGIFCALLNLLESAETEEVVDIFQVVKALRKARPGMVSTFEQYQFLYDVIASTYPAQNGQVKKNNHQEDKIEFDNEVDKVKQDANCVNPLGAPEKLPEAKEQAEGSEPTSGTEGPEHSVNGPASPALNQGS

[3] = molecular target: C-C chemokine receptor type 2 (Homo sapiens, UniProt P41597); type: cell membranes, CHO-K1, Membrane; note: in other assays of this panel Not Active means under 50% inhibition at 10 µM
D(3) dopamine receptor = D(3) dopamine receptor (Homo sapiens, UniProt P35462); experiment: DRUGMATRIX: Dopamine D3 radioligand binding (ligand: [3H] Spiperone); type: cell membranes, CHO, Membrane
[4] = DRUGMATRIX: Platelet-Derived Growth Factor (PDGF) radioligand binding (ligand: [125I] PDGF); type: cell-based; conditions: nih3t3; Not Active = under 50% inhibition at 10 µM

C-C chemokine receptor type 2, sequence (P41597 whole entry): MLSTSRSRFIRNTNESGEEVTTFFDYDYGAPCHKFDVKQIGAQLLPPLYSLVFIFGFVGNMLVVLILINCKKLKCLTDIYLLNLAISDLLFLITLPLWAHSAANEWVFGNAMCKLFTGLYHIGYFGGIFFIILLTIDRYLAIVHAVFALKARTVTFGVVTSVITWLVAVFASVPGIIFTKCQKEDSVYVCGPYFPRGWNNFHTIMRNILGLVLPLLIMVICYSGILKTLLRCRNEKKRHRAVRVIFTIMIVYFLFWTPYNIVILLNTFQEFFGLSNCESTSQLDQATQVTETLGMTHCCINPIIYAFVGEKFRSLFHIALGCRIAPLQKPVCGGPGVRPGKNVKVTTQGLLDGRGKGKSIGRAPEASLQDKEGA
D(3) dopamine receptor, sequence (P35462 whole entry): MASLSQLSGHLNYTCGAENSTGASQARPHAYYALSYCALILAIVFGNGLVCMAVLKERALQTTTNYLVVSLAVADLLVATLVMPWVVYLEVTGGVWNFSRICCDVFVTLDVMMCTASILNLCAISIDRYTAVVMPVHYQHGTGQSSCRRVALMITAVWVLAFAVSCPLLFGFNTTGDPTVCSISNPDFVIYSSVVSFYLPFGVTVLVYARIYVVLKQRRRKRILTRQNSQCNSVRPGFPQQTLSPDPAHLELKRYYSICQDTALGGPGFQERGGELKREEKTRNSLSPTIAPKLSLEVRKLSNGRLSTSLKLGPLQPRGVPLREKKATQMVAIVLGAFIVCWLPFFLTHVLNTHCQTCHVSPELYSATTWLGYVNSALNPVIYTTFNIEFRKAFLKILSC
Melanocortin receptor 5, sequence (P33032 whole entry): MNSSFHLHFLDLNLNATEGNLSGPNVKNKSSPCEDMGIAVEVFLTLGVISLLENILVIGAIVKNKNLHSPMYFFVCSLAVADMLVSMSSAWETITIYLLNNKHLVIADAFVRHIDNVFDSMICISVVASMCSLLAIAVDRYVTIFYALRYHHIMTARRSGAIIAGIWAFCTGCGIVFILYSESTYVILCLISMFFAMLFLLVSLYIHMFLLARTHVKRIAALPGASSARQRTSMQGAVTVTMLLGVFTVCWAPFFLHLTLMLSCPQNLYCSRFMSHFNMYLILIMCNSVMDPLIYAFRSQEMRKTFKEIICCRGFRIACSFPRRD

Question: Which results are given for `CC(C)(c1ccc(O)cc1)c1ccc(O)cc1` [BISPHENOL A]?
Answer: IC50 (Melanocortin receptor 5; hek293): Not Active; IC50 [1]: Not Active; Ki [1]: Not Active; IC50 [2]: Not Active; IC50 ([3]; cho-k1): Not Active; IC50 (D(3) dopamine receptor; cho): Not Active; IC50 [4]: Not Active; Ki [4]: Not Active

Question: Which IC50 (Melanocortin receptor 5; read-out: IC50) does the source give for `c1ccc2sc(SSc3nc4ccccc4s3)nc2c1` [BENZOTHIAZYL DISULFIDE] here?
Answer: 3900 nM

Question: And the Ki (Melanocortin receptor 5; read-out: Ki)?
Answer: 3700 nM

Question: What about the IC50 [1] of the same molecule?
Answer: Not Active

Question: What about the Ki [1] of the same molecule?
Answer: Not Active

Question: What about the IC50 [2] of the same molecule?
Answer: Not Active

Question: What about the IC50 ([3]; read-out: IC50) of the same molecule?
Answer: 2410 nM

Question: What about the Ki ([3]; read-out: Ki) of the same molecule?
Answer: 929 nM

Question: And the IC50 (D(3) dopamine receptor; read-out: IC50)?
Answer: 851 nM

Question: What about the Ki (D(3) dopamine receptor; read-out: Ki) of the same molecule?
Answer: 289 nM

Question: What about the IC50 [4] of the same molecule?
Answer: Not Active

Question: And the Ki [4]?
Answer: Not Active

Question: For `CC(=O)Nc1ccc2c(c1)Cc1ccccc1-2` [2-ACETYLAMINOFLUORENE], which IC50 (Melanocortin receptor 5; hek293) is on record?
Answer: Not Active

Question: And the IC50 [1]?
Answer: Not Active

Question: What about the Ki [1] of the same molecule?
Answer: Not Active

Question: What about the IC50 [2] of the same molecule?
Answer: Not Active

Question: What about the IC50 ([3]; cho-k1) of the same molecule?
Answer: Not Active

Question: What about the IC50 (D(3) dopamine receptor; cho) of the same molecule?
Answer: Not Active

Question: And the IC50 [4]?
Answer: Not Active

Question: What about the Ki [4] of the same molecule?
Answer: Not Active

Question: Which results are given for `Cc1cc(C(C)(C)C)c(O)c(C)c1CC1=NCCN1` [OXYMETAZOLINE]?
Answer: IC50 (Melanocortin receptor 5; hek293): Not Active; IC50 [1]: Not Active; Ki [1]: Not Active; IC50 [2]: Not Active; IC50 ([3]; cho-k1): Not Active; IC50 (D(3) dopamine receptor; cho): Not Active; IC50 [4]: Not Active; Ki [4]: Not Active

Question: Which results are given for `c1ccc(Cn2ccnc2)cc1`?
Answer: IC50 (Melanocortin receptor 5; hek293): Not Active; IC50 [1]: Not Active; Ki [1]: Not Active; IC50 [2]: Not Active; IC50 ([3]; cho-k1): Not Active; IC50 (D(3) dopamine receptor; cho): Not Active; IC50 [4]: Not Active; Ki [4]: Not Active

Question: Which IC50 (Melanocortin receptor 5; hek293) does the source give for `Nc1ccc(Cc2ccc(N)cc2)cc1` here?
Answer: Not Active

Question: What about the IC50 [1] of the same molecule?
Answer: Not Active

Question: And the Ki [1]?
Answer: Not Active

Question: What about the IC50 [2] of the same molecule?
Answer: Not Active

Question: And the IC50 ([3]; cho-k1)?
Answer: Not Active

Question: And the IC50 (D(3) dopamine receptor; cho)?
Answer: Not Active

Question: What about the IC50 [4] of the same molecule?
Answer: Not Active

Question: What about the Ki [4] of the same molecule?
Answer: Not Active

Question: Which IC50 (Melanocortin receptor 5; hek293) does the source give for `CC(N)Cc1c[nH]c2ccc(OCc3cccs3)cc12` (centres undefined) [BW-723C86] here?
Answer: Not Active

Question: And the IC50 [1]?
Answer: Not Active

Question: And the Ki [1]?
Answer: Not Active

Question: And the IC50 [2]?
Answer: Not Active

Question: What about the IC50 ([3]; cho-k1) of the same molecule?
Answer: Not Active

Question: What about the IC50 (D(3) dopamine receptor; cho) of the same molecule?
Answer: Not Active

Question: What about the IC50 [4] of the same molecule?
Answer: Not Active

Question: And the Ki [4]?
Answer: Not Active

Question: For `CCO` [ALCOHOL], which IC50 (Melanocortin receptor 5; hek293) is on record?
Answer: Not Active

Question: What about the IC50 [1] of the same molecule?
Answer: Not Active

Question: What about the Ki [1] of the same molecule?
Answer: Not Active

Question: And the IC50 [2]?
Answer: Not Active

Question: And the IC50 ([3]; cho-k1)?
Answer: Not Active

Question: What about the IC50 (D(3) dopamine receptor; cho) of the same molecule?
Answer: Not Active

Question: What about the IC50 [4] of the same molecule?
Answer: Not Active

Question: And the Ki [4]?
Answer: Not Active

Question: Which IC50 (Melanocortin receptor 5; hek293) does the source give for `CC[C@H]1OC(=O)[C@H](C)[C@@H](O[C@H]2C[C@@](C)(OC)[C@@H](O)[C@H](C)O2)[C@H](C)[C@@H](O[C@@H]2O[C@H](C)C[C@H](N(C)C)[C@H]2O)[C@](C)(O)C[C@@H](C)C(=O)[C@H](C)[C@@H](O)[C@]1(C)O` [ERYTHROMYCIN] here?
Answer: Not Active

Question: What about the IC50 [1] of the same molecule?
Answer: Not Active

Question: And the Ki [1]?
Answer: Not Active

Question: What about the IC50 [2] of the same molecule?
Answer: Not Active

Question: And the IC50 ([3]; cho-k1)?
Answer: Not Active

Question: And the IC50 (D(3) dopamine receptor; cho)?
Answer: Not Active

Question: And the IC50 [4]?
Answer: Not Active

Question: And the Ki [4]?
Answer: Not Active

Question: With `O=C(O)CNCP(=O)(O)O` [GLYPHOSATE] as the molecule, how does the IC50 (Melanocortin receptor 5; hek293) read?
Answer: Not Active

Question: What about the IC50 [1] of the same molecule?
Answer: Not Active

Question: And the Ki [1]?
Answer: Not Active

Question: And the IC50 [2]?
Answer: Not Active

Question: And the IC50 ([3]; cho-k1)?
Answer: Not Active

Question: What about the IC50 (D(3) dopamine receptor; cho) of the same molecule?
Answer: Not Active

Question: What about the IC50 [4] of the same molecule?
Answer: Not Active

Question: And the Ki [4]?
Answer: Not Active

Question: Which IC50 (Melanocortin receptor 5; hek293) does the source give for `Nc1nc(N)c2nc(CNc3ccc(C(=O)N[C@@H](CCC(=O)O)C(=O)O)cc3)cnc2n1` [AMINOPTERIN] here?
Answer: Not Active

Question: And the IC50 [1]?
Answer: Not Active

Question: And the Ki [1]?
Answer: Not Active

Question: And the IC50 [2]?
Answer: Not Active

Question: And the IC50 ([3]; cho-k1)?
Answer: Not Active

Question: And the IC50 (D(3) dopamine receptor; cho)?
Answer: Not Active

Question: And the IC50 [4]?
Answer: Not Active

Question: And the Ki [4]?
Answer: Not Active

Question: With `CC(C)Cn1cnc2c(N)nc3ccccc3c21` [IMIQUIMOD] as the molecule, how does the IC50 (Melanocortin receptor 5; hek293) read?
Answer: Not Active

Question: And the IC50 [1]?
Answer: Not Active

Question: What about the Ki [1] of the same molecule?
Answer: Not Active

Question: What about the IC50 [2] of the same molecule?
Answer: Not Active

Question: And the IC50 ([3]; cho-k1)?
Answer: Not Active

Question: What about the IC50 (D(3) dopamine receptor; cho) of the same molecule?
Answer: Not Active

Question: What about the IC50 [4] of the same molecule?
Answer: Not Active

Question: What about the Ki [4] of the same molecule?
Answer: Not Active
